Here are results for 23 compounds from US9079913B2, “Spiro-oxindole MDM2 antagonists” (The Regents of the University of Michigan, priority 2009, dated 2015).

Molecules are shown by their SMILES. Like-named read-outs stand apart in the source and are kept apart here. Where only a bound is given, the exact number is not on record here.

In data set [1] the test system is cancer cell lines with wild-type p53 / mutated or deleted p53 (ATCC). The experiment in a line: Cell growth assay (WST-8), other cancer cell lines. Particulars: Homo sapiens. The data set is classed as cell-based. Background: Tetrazolium assays rely on reduction of a dye to a coloured formazan, in cell work by metabolically active cells.
For data set [2], the system named is Isogenic HCT-116 colon cancer cell lines. The experiment in a line: cells. It is filed as cell-based. The settings on record: Homo sapiens, cell growth.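 Note: cells grown in 96-well plates in McCoy's 5A medium with 10% FBS, exposed to compound for 4 days.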
Experimental: Cells were seeded in 96-well flat bottom cell culture plates at a density of 2−3×10^3 cells/well with compounds and incubated for 4 days.
Data set [3] in a line: In vitro microsomal stability, rat. The data set is classed as in vitro ADME.
In data set [4] the target is recombinant human His-tagged MDM2 protein (residues 1-118) (Homo sapiens (Human), UniProt Q00987). Kind of data set: Fluorescence-polarization MDM2 binding assay.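 Note: fluorescence polarization read after three hours of incubation in potassium phosphate buffer containing bovine gamma globulin and Triton X-100.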 The settings on record: Table 19A; FP binding assay; read-out: MDM2 IC50.
recombinant human His-tagged MDM2 protein (residues 1-118), sequence (Q00987 1-118): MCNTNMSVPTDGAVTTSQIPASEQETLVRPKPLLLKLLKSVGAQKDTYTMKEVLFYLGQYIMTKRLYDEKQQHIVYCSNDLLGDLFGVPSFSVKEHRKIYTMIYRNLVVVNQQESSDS
Where [5] appears, read: LNCaP, Table 19A, LNCAP cells, p53 wild-type, cell growth, read-out: LNCAP (p53 wild-type) IC50.
Where [6] appears, read: PC-3, Table 19A, PC-3 cells, deleted p53, cell growth, read-out: PC-3 (deleted p53) IC50.
Where [7] appears, read: SJSA-1, Table 19A, SJSA-1 cells, p53 wild-type, cell growth, read-out: SJSA-1 (p53 wild-type) IC50.
The mark [8] stands for this setting: HCT-116, read-out: HCT-116 (p53-/-) IC50, Table 19A, HCT-116 p53-/-.
[9] abbreviates: HCT-116, read-out: HCT-116 (p53 wild-type) IC50, Table 19A, HCT-116 p53 wild-type.

As for `CC(C)(C)C[C@H]1N[C@@H](C(=O)NCCCN2CCCC2)[C@H](c2cccc(Cl)c2)[C@@]12C(=O)Nc1cc(Cl)c(F)cc12` [MI-519-38], the IC50 in data set [1] (setting [5]) was 1 ± 0.3 µM; in data set [1] (setting [6]), 3.1 ± 0.4 µM; in data set [1] (setting [7]) it was 2.1 ± 0.1 µM; in data set [2] (setting [8]), 5.3 ± 1.6 µM; in data set [2] (setting [9]), 1.4 ± 0.6 µM; in data set [4] it was less than 1 µM. The “% of compound remaining when incubated in rat liver microsomes at indicated time (min)” value in data set [3] (0 min) turned out to be 100%; in data set [3] (4 min), 91.5%; in data set [3] (6 min), 85.4%; in data set [3] (10 min) it was 82.4%; in data set [3] (15 min) it was 80.8%; in data set [3] (30 min), 73.2%.
As to `CC(C)(C)C[C@H]1N[C@@H](C(=O)NC2CCN(CC(C)(C)O)CC2)[C@H](c2cccc(Cl)c2F)[C@@]12C(=O)Nc1cc(Cl)ccc12` [MI-785], the IC50 was 0.7 µM in data set [1] (setting [7]), 8 µM in data set [2] (setting [8]), 0.5 µM in data set [2] (setting [9]) and less than 0.5 µM in data set [4].
Regarding `CC(C)(C)C[C@H]1N[C@@H](C(=O)NCC[C@](C)(O)CO)[C@H](c2cccc(Cl)c2F)[C@@]12C(=O)Nc1cc(Cl)ccc12` [MI-789], the IC50 is less than 3 µM in data set [1] (setting [5]); greater than 10 µM in data set [1] (setting [6]); less than 3 µM in data set [1] (setting [7]); greater than 10 µM in data set [2] (setting [8]); less than 3 µM in data set [2] (setting [9]); less than 3 µM in data set [4].
Regarding `CC(C)(C)C[C@H]1N[C@@H](C(=O)NCC[C@@](C)(O)CO)[C@H](c2cccc(Cl)c2F)[C@@]12C(=O)Nc1cc(Cl)ccc12` [MI-790], the IC50 in data set [1] (setting [5]) was less than 3 µM; in data set [1] (setting [6]), greater than 10 µM; in data set [1] (setting [7]), less than 3 µM; in data set [2] (setting [8]) it was greater than 10 µM; in data set [2] (setting [9]), less than 3 µM; in data set [4], less than 3 µM.
Turning to `O=C(NC1CCC(O)CC1)[C@@H]1N[C@H](CC2CCCC2)[C@]2(C(=O)Nc3cc(Cl)ccc32)[C@H]1c1cccc(Cl)c1F` (stereo partly drawn) [MI-791], the IC50 in data set [1] (setting [5]) was less than 3 µM; in data set [1] (setting [6]) it was greater than 10 µM; in data set [1] (setting [7]), less than 3 µM; in data set [2] (setting [8]), greater than 10 µM; in data set [2] (setting [9]) it was less than 3 µM; in data set [4], less than 3 µM.
With `O=C(NC1CCC(O)CC1)[C@@H]1N[C@H](C=C2CCCC2)[C@]2(C(=O)Nc3cc(Cl)ccc32)[C@H]1c1cccc(Cl)c1F` (stereo partly drawn) [MI-792], the IC50 is less than 10 µM in data set [1] (setting [5]); greater than 20 µM in data set [1] (setting [6]); less than 10 µM in data set [1] (setting [7]); greater than 20 µM in data set [2] (setting [8]); less than 10 µM in data set [2] (setting [9]); less than 5 µM in data set [4].
On to `CC(C)(C)C[C@H]1N[C@@H](C(=O)NC2CCC(OC(=O)CN)CC2)[C@H](c2cccc(Cl)c2F)[C@@]12C(=O)Nc1cc(Cl)ccc12` (stereo partly drawn) [MI-901], for which the IC50 in data set [1] (setting [5]) is less than 3 µM; in data set [1] (setting [6]) it was greater than 5 µM; in data set [1] (setting [7]) it was less than 3 µM; in data set [2] (setting [8]), greater than 10 µM; in data set [2] (setting [9]), less than 3 µM; in data set [4] it was less than 1 µM.
Turning to `CC(C)[C@H](N)C(=O)OC1CCC(NC(=O)[C@@H]2N[C@H](CC(C)(C)C)[C@]3(C(=O)Nc4cc(Cl)ccc43)[C@H]2c2cccc(Cl)c2F)CC1` (stereo partly drawn) [MI-902], the IC50 in data set [1] (setting [5]) was less than 3 µM; in data set [1] (setting [6]) it was 4 µM; in data set [1] (setting [7]), less than 3 µM; in data set [2] (setting [8]), 5.9 µM; in data set [2] (setting [9]), less than 3 µM; in data set [4] it was less than 3 µM.
In the case of `CC(C)C[C@H](N)C(=O)OC1CCC(NC(=O)[C@@H]2N[C@H](CC(C)(C)C)[C@]3(C(=O)Nc4cc(Cl)ccc43)[C@H]2c2cccc(Cl)c2F)CC1` (stereo partly drawn) [MI-903], the IC50 in data set [1] (setting [5]) was less than 3 µM; in data set [1] (setting [6]), 3.5 µM; in data set [1] (setting [7]), less than 3 µM; in data set [2] (setting [8]), 12.1 µM; in data set [2] (setting [9]) it was less than 3 µM; in data set [4], less than 3 µM.
Regarding `CC[C@H](C)[C@H](N)C(=O)OC1CCC(NC(=O)[C@@H]2N[C@H](CC(C)(C)C)[C@]3(C(=O)Nc4cc(Cl)ccc43)[C@H]2c2cccc(Cl)c2F)CC1` (stereo partly drawn) [MI-904], the IC50 in data set [1] (setting [5]) was less than 3 µM; in data set [1] (setting [6]), 3.1 µM; in data set [1] (setting [7]) it was less than 3 µM; in data set [2] (setting [8]) it was 6.1 µM; in data set [2] (setting [9]), less than 3 µM; in data set [4], less than 1 µM.
In the case of `CC(C)[C@@H](N)C(=O)OC1CCC(NC(=O)[C@@H]2N[C@H](CC(C)(C)C)[C@]3(C(=O)Nc4cc(Cl)ccc43)[C@H]2c2cccc(Cl)c2F)CC1` (stereo partly drawn) [MI-905], the IC50 in data set [1] (setting [5]) was less than 3 µM; in data set [1] (setting [6]), 3.9 µM; in data set [1] (setting [7]) it was less than 3 µM; in data set [2] (setting [8]), 8 µM; in data set [2] (setting [9]), less than 3 µM; in data set [4], less than 1 µM.
On to `C[C@@H](N)C(=O)OC1CCC(NC(=O)[C@@H]2N[C@H](CC(C)(C)C)[C@]3(C(=O)Nc4cc(Cl)ccc43)[C@H]2c2cccc(Cl)c2F)CC1` (stereo partly drawn) [MI-906], for which the IC50 is less than 3 µM in data set [1] (setting [5]); 3.6 µM in data set [1] (setting [6]); less than 3 µM in data set [1] (setting [7]); 9.1 µM in data set [2] (setting [8]); less than 3 µM in data set [2] (setting [9]); less than 1 µM in data set [4].
In the case of `CC(C)(C)C[C@H]1N[C@@H](C(=O)NC2CCC(OC(=O)C(C)(C)N)CC2)[C@H](c2cccc(Cl)c2F)[C@@]12C(=O)Nc1cc(Cl)ccc12` (stereo partly drawn) [MI-907], the IC50 was less than 3 µM in data set [1] (setting [5]); 3 µM in data set [1] (setting [6]); less than 3 µM in data set [1] (setting [7]); 7 µM in data set [2] (setting [8]); less than 3 µM in data set [2] (setting [9]); less than 1 µM in data set [4].
`CC(C)(C)C[C@H]1N[C@@H](C(=O)NC2CCC(OC(=O)[C@H](Cc3ccccc3)NC(=O)OC(C)(C)C)CC2)[C@H](c2cccc(Cl)c2F)[C@@]12C(=O)Nc1cc(Cl)ccc12` (stereo partly drawn) [MI-908]: the IC50 in data set [1] (setting [5]) is 4.3 µM; in data set [1] (setting [6]), roughly 30 µM; in data set [1] (setting [7]), 22.5 µM; in data set [2] (setting [8]), greater than 30 µM; in data set [2] (setting [9]), 5.3 µM; in data set [4] it was greater than 10 µM.
On to `CC(C)(C)C[C@H]1N[C@@H](C(=O)NC2CN(CC(C)(C)O)C2)[C@H](c2cccc(Cl)c2F)[C@@]12C(=O)Nc1cc(Cl)ccc12` [MI-909], for which the IC50 in data set [1] (setting [5]) was less than 3 µM; in data set [1] (setting [6]), greater than 5 µM; in data set [1] (setting [7]), less than 3 µM; in data set [2] (setting [8]), greater than 5 µM; in data set [2] (setting [9]), less than 3 µM; in data set [4], less than 1 µM.
For `CC(C)(C)C[C@H]1N[C@@H](C(=O)NC2CCC(OC(=O)[C@@H](N)Cc3ccccc3)CC2)[C@H](c2cccc(Cl)c2F)[C@@]12C(=O)Nc1cc(Cl)ccc12` (stereo partly drawn) [MI-910], the IC50 in data set [1] (setting [5]) was less than 3 µM; in data set [1] (setting [6]) it was 7 µM; in data set [1] (setting [7]), less than 3 µM; in data set [2] (setting [8]), 9.8 µM; in data set [2] (setting [9]) it was less than 3 µM; in data set [4], less than 1 µM.
Regarding `CC(C)NC(=O)N1CC(NC(=O)[C@@H]2N[C@H](CC(C)(C)C)[C@]3(C(=O)Nc4cc(Cl)ccc43)[C@H]2c2cccc(Cl)c2F)C1` [MI-911], the IC50 in data set [1] (setting [5]) is less than 5 µM; in data set [1] (setting [6]), greater than 10 µM; in data set [1] (setting [7]), less than 5 µM; in data set [2] (setting [8]) it was greater than 10 µM; in data set [2] (setting [9]), less than 5 µM; in data set [4], less than 3 µM.
Turning to `CC(C)(C)C[C@H]1N[C@@H](C(=O)NC2CN(CCO)C2)[C@H](c2cccc(Cl)c2F)[C@@]12C(=O)Nc1cc(Cl)ccc12` [MI-912], the IC50 was less than 5 µM in data set [1] (setting [5]); greater than 5 µM in data set [1] (setting [6]); less than 5 µM in data set [1] (setting [7]); greater than 10 µM in data set [2] (setting [8]); less than 5 µM in data set [2] (setting [9]); less than 3 µM in data set [4].
As for `CC(C)(C)C[C@H]1N[C@@H](C(=O)NC2CN(C(=O)NC3CCCCC3)C2)[C@H](c2cccc(Cl)c2F)[C@@]12C(=O)Nc1cc(Cl)ccc12` [MI-913], the IC50 is less than 5 µM in data set [1] (setting [5]); 4.9 µM in data set [1] (setting [6]); less than 5 µM in data set [1] (setting [7]); 8.8 µM in data set [2] (setting [8]); less than 5 µM in data set [2] (setting [9]); less than 3 µM in data set [4].
With `CC(=O)OC(C)(C)C(=O)N1CC(NC(=O)[C@@H]2N[C@H](CC(C)(C)C)[C@]3(C(=O)Nc4cc(Cl)ccc43)[C@H]2c2cccc(Cl)c2F)C1` [MI-914], the IC50 in data set [1] (setting [5]) is less than 3 µM; in data set [1] (setting [6]), greater than 5 µM; in data set [1] (setting [7]), less than 3 µM; in data set [2] (setting [8]), greater than 10 µM; in data set [2] (setting [9]), less than 3 µM; in data set [4], less than 1 µM.
As to `CC(=O)N1CC(NC(=O)[C@@H]2N[C@H](CC(C)(C)C)[C@]3(C(=O)Nc4cc(Cl)ccc43)[C@H]2c2cccc(Cl)c2F)C1` [MI-915], the IC50 is less than 10 µM in data set [1] (setting [5]); greater than 30 µM in data set [1] (setting [6]); less than 10 µM in data set [1] (setting [7]); greater than 30 µM in data set [2] (setting [8]); less than 10 µM in data set [2] (setting [9]); less than 3 µM in data set [4].
Consider `CCCCNC(=O)N1CC(NC(=O)[C@@H]2N[C@H](CC(C)(C)C)[C@]3(C(=O)Nc4cc(Cl)ccc43)[C@H]2c2cccc(Cl)c2F)C1` [MI-916], for which the IC50 is less than 3 µM in data set [1] (setting [5]); greater than 5 µM in data set [1] (setting [6]); less than 5 µM in data set [1] (setting [7]); greater than 5 µM in data set [2] (setting [8]); less than 3 µM in data set [2] (setting [9]); less than 0.1 µM in data set [4].
Take `CCN(CC)C(=O)N1CC(NC(=O)[C@@H]2N[C@H](CC(C)(C)C)[C@]3(C(=O)Nc4cc(Cl)ccc43)[C@H]2c2cccc(Cl)c2F)C1` [MI-917]: the IC50 in data set [1] (setting [5]) is less than 3 µM; in data set [1] (setting [6]) it was greater than 5 µM; in data set [2] (setting [8]) it was greater than 10 µM; in data set [2] (setting [9]) it was less than 3 µM; in data set [4] it was less than 1 µM.
